Values of other authors as cited in US20260263368A1, “DOUBLE-RELEASE THREE-LAYERED BR[…] AND PREPARATION METHOD THEREOF” (TAIZHOU OVERSEAS PHARMACEUTICALS, LTD., priority 2023, published 2026).

Conditions: background statement

In the case of `CCC[C@@H]1CC(=O)N([C@@H](CC)C(N)=O)C1` [Brivaracetam, (2S)-2-[(4R)-2-oxo-4-propyltetrahydro-1H-pyrrol-1-yl]butanamide], the water solubility is given as “good water solubility”.
